Results taken from patent US12714719B2, “Cannabinoids, pharmaceutical compositions comprising same and uses thereof” (TECHNION RESEARCH AND DEVELOPMENT FOUNDATION LIMITED, priority 2020, dated 2026).

Tests used:
DBTRG-05MG cells = assay: Hoechst / Propidium Iodide cell death imaging; format: cell-based; settings: 24 hours; for % of cell death, effect of adding the cannabinoid to CBD: DBTRG-05MG, purified cannabinoids at content of extract 2, 4 and 8 μg/ml, compared with CBD alone
Procedure: The effects of cannabinoids on the survival of tolerant glioblastoma (GBM) cancer cells harboring a NOTCH 4 mutation were examined.
DBTRG-05MG cells were cultured in 96 well plate (1×10^5 cells/well) until confluency and treated with DMSO as control, pure cannabidiol (CBD), and extracts CAN12 and CAN26 with increasing concentrations from 1 to 4 μg/ml (FIG. 2A).
In another experiment, cells were cultured in 96 well plate (1×10^5 cells/well) until confluency and treated for 24 hours with three molecules (CBD, CBDV and CF1) as compared to the whole extract. The treatments were performed using three extract concentrations: 2, 4 and 8 μg/ml (FIG. 2B). After 24 hours, cells were stained with Hoechst and Propidium Iodide (PI) and imaged by IXM micro system (Molecular Devices) in 10× magnification. Live and dead cells were analyzed by MetaXpress® software (Molecular Devices) and presented as percentages of cell death from total cells. The purified phytocannabinoids were diluted to contain the same content as in the extract, then were provided according to the extract concentrations.

Molt-4 cells = assay: AlamarBlue (resazurin) viability assay; format: cell-based
Procedure: Dose-dependent AlamarBlue® (resazurin) viability assays were performed on Molt-4 cells treated with different concentrations of three phytocannabinoids (CBD, CBDV and CF1) at different ratios, as shown in Table 2.
In order to determine the effect of cannabinoids on the reduction of the survival rate of cancer cells, dose-dependent AlamarBlue® (resazurin) viability assays were then performed on Molt-4 cells treated with single cannabinoids or a combination of two cannabinoids at the same concentration as that of the three phytocannabinoids present in the whole extract, as shown in Table 3. Particularly, CF1 alone, or in combination with one additional cannabinoid was examined to determine its capability to induce apoptosis of cancer cells.

| SMILES | % of cell death (DBTRG-05MG cells; GBM DBTRG-05MG cells harboring a NOTCH 4 mutation, vs DMSO) | % of cell death, effect of adding the cannabinoid to CBD (DBTRG-05MG cells) | inducing cancer cells death (Molt-4 cells; Molt-4, CF1 alone as a single cannabinoid (1a, 0.62 ng/μl)) | potency among the three cannabinoids (CBD, CBDV, CF1) (Molt-4 cells; Molt-4, Table 3 compositions) |
| --- | --- | --- | --- | --- |
| C=C(C)[C@@H]1CCC(C)=C[C@H]1c1c(O)cc(CCCCC)cc1O [CBD, cannabidiol] | increased |  |  |  |
| C=C(C)[C@@H]1CCC(C)=C[C@H]1c1c(O)cc(CCC)cc1O [CBDV, cannabidivarin] |  | improved the activity of CBD alone |  |  |
| CCCCCc1cc(O)c(C2C=C(C)CCC2C(C)(C)O)c(O)c1 [CF1, 1,3-benzenediol,2-[(1R,6R)-6-(1-hydroxy-1-methylethyl)-3-methyl-2cyclohexen-1-yl]-5-pentyl] |  | improved the activity of CBD alone | showed efficacy | most potent |
